In US9958436B2, “Determination of cell chirality” (THE TRUSTEES OF COLUMBIA UNIVERSITY IN THE CITY OF NEW YORK, priority 2011, dated 2018):
“Also recorded” adds a separate entry of the source.

Columns and labels:
C2C12 cells [1] = test: Effects of culture conditions (substrate protein coating, calcium chelator) on cell chirality; type: cell-based, mouse; conditions: count of rings
Method: An adhesive SAM octadecanethiol (Sigma) was transferred onto the gold-coated (150 Å in thickness) glass slide with the PDMS stamp (see e.g., FIG. 1) (L. Q. Wan et al., Integr Biol (Camb) 2, 346 (Aug. 10, 2010)). The slide was then immersed in a non-adhesive ethylene glycol-terminated SAM (HS-(CH2)11-EG3, Prochimia, Poland) for 3 hours. Finally, patterned surfaces were washed with ethanol and coated with 10 μg/ml fibronectin (Sigma) for 30 minutes.
(§1) Cells were maintained in tissue flasks with culture media specified in TABLE 2. After reaching 70% confluency, cells were trypsinized and seeded onto protein-coated patterned surfaces. Once the cells attached, extra cells were washed off with fresh medium. At this time drugs were added into the culture medium if necessary. Phase contrast images were taken after overnight incubation at 37° C. and 5% CO2 when cells reached confluency on the ring patterns.
(§2) High-resolution phase contrast images of live patterned cells were taken at a resolution of ˜0.645 μm/pixel, and analyzed using a custom-written code in MatLab (MathWorks, Natick, Mass.), based on the automated detection of intensity gradient and circular statistics (W. J. Karlon et al., Ann Biomed Eng 27, 712 (November-December, 1999)). In this algorithm, the intensity gradient was determined pixel by pixel with a Gaussian differential filter. In each sub-region of the image, the dominant local direction was determined using an accumulator scheme, in which the orientation of each pixel follows a von Mises distribution, a circular analogue of the linear normal distribution. Subsequently, the orientation in each sub-region was converted into an angle bias based on its deviation from the circumferential direction (see e.g., FIG. 2C). Mean angle and standard deviation of LR asymmetry were calculated for all sub-regions, using circular statistics (N. I. Fish, Statistical Analysis of Circular Data. (Cambridge University Press, Cambridge, UK, 1993)). […] The sub-region size was therefore set to 20 by 20 pixels (i.e., 13 by 13 μm).
(§3) Cell chirality on ring patterns (i.e., clockwise or counterclockwise alignment) was determined from calculated biased angles in local regions with one sample test for the mean angle, analogous to the one sample t-test in linear statistics (N. I. Fish, Statistical Analysis of Circular Data. (Cambridge University Press, Cambridge, UK, 1993)).
The geometric boundaries determined organelle positioning (i.e., x-axis), with centrosomes (bright green, see e.g., FIG. 4B) and Golgi apparatus (red, see e.g., FIG. 4C) being positioned closer to the boundaries than the cell nucleus (blue) (R. A. Desai, L. Gao, S. Raghavan, W. F. Liu, C. S. Chen, J Cell Sci 122, 905 (Apr. 1, 2009)), independent of the gravitational direction. In addition, cell chirality was maintained on patterns with different surface chemistry, and after the disruption of cadherin function (see e.g., FIG. 1, TABLE 6, TABLE 7).

C2C12 cells [2] = test: Cell chirality (alignment) on micropatterned rings, drug treatment, C2C12; type: cell-based, mouse; conditions: for CCW: counter-clockwise alignment / CW: clockwise alignment / N/S: not significantly biased to CW or CCW: C2C12 on ring patterns, count of rings
Method: as §1
(§4) To examine the role of actin in left-right (LR) asymmetry, cells were tested with 20-500 nM Latrunculin A, 0.05-1.0 μg/ml Cytochalasin D, and 1-100 nM Jasplakinolide. Latrunculin A inhibits actin polymerization by forming a 1:1 molar complex with G-actin, thereby inhibiting its ability to polymerize into F-actin (M. Coue, S. L. Brenner, I. Spector, E. D. Korn, FEBS Lett 213, 316 (Mar. 23, 1987)). Cytochalasin D inhibits actin polymerization by binding to the growing ends of F-actin chains and thus preventing the attachment and addition of G-actin monomers (J. A. Cooper, J Cell Biol 105, 1473 (October, 1987)). Jasplakinolide is known to bind to and stabilize actin filaments in vitro (M. R. Bubb, I. Spector, B. B. Beyer, K. M. Fosen, J Biol Chem 275, 5163 (Feb. 18, 2000)).
(§5) To examine the role of microtubules in LR asymmetry, 0.2-2 μM Nocodazole, and 0.3-30 nM Taxol were used. Nocodazole suppresses microtubule dynamics by destabilizing and disassembling microtubules (J. A. Cooper, J Cell Biol 105, 1473 (October, 1987)). Taxol inhibits the microtubule depolymerization and stabilizes microtubules (W. B. Derry, L. Wilson, M. A. Jordan, Biochemistry 34, 2203 (Feb. 21, 1995)).
To examine the role of the actomyosin motor, cells were tested with […], […], and 0.5-10 […]. Y-27632 works as a selective inhibitor to prevent the phosphorylation of the myosin regulatory light chain (T. Ishizaki et al., Mol Pharmacol 57, 976 (May, 2000)). ML-7 acts as a selective inhibitor of the myosin light chain kinase (M. Isemura, T. Mita, K. Satoh, K. Narumi, M. Motomiya, Cell Biol Int Rep 15, 965 (October, 1991)). Blebbistatin forms a low actin affinity complex through binding to myosin heads, causing the inhibition of nonmuscle myosin II ATPase activity (M. Kovacs, J. Toth, C. Hetenyi, A. Malnasi-Csizmadia, J. R. Sellers, J Biol Chem 279, 35557 (Aug. 20, 2004)).
as §2, §3

hUVEC cells = test: Cell chirality (alignment) on micropatterned rings, drug treatment, hUVEC; type: cell-based, human; conditions: hUVEC on ring patterns, count of rings
Method: as §1, §4, §5, §2, §3

skin tumor cancer cells = test: Cell chirality on patterned substrates, skin tumor cancer cells, actin interfering reagent; type: cell-based, human; conditions: count of patterns
Method: as §2, §3
Experiments were conducted to determine whether cancer cell chirality depends on actin function. Skin cancer cells were treated with actin interfering reagent Lantrunculin A at 0 nM (control), 20 nM, 50 nM, 100 nM, or 200 nM.

C2C12 cells [3] = test: Cell polarization by organelle positioning relative to ring boundaries (immunofluorescence); type: cell-based, mouse; conditions: C2C12 on rings; centrosome vs nucleus position
Method: After imaging, cells were fixed with 4% formaldehyde in cytoskeletal buffer (10 mM MES, 138 mM KCl, 3 mM MgCl2, 2 mM EGTA, and 0.32 M sucrose) for 25 minutes. For actin/tubulin double staining, the cells were incubated with phalloidin-TRITC (1:400; Invitrogen) and anti-Tubulin-FITC (1:50; Sigma) for 1 hour. For the Golgi apparatus positioning inside patterned rings, the cells were incubated in 1 μg/ml anti-human golgin-97 (Invitrogen) for 1 hour. After secondary antibodies, cell nuclei were stained with 200 ng/ml 40, 6-diamidino-2-phenylindole (DAPI; Sigma) for 10 minutes. Finally, the cells were mounted with Fluoromount-G medium (SouthernBiotech, Birmingham, Ala.).

C2C12 cells [4] = test: Analysis of cell migration on ring patterns (time-lapse, digital image correlation); type: cell-based, mouse; conditions: C2C12 treated
Method: For time-lapse videos, cells were patterned on a gold-coated glass-bottom Petri dish (ibid, München, Germany). After cells attached, the dish was transferred into an environmental chamber (37° C. and 5% CO2) and image time series were recorded every 5 minutes at a resolution of 1.56 μm/pixel for a total time of 20-40 hours. As the image capture rate is much higher than the characteristic time for cell migration, digital image correlation, together with sub-pixel displacement estimation, were used to determine the displacements of cell migration. A FFT (fast Fourier transform)-based method was first utilized to match regions of two sequential phase contrast images. The calculated displacement values were then used as inputs for a more accurate estimation of displacement fields at a sub-pixel level, using a second-order image correlation algorithm described previously (P. Zhou, K. E. Goodson, Opt Eng 40, 1613 (August, 2001)). To evaluate the bias of cell migration, the obtained velocity field was further projected in the circumferential (Vθ) and radial (Vr) direction.

[5] = substrate protein coating of the pattern
[6] = calcium chelator added to culture, 0.5 mM
[7] = calcium chelator added to culture, 2 mM

Laminin
CCW: counter-clockwise alignment (C2C12 cells [1]; [5]): 34 | CW: clockwise alignment (C2C12 cells [1]; [5]): 2 | N/S: not significantly biased to CW or CCW (C2C12 cells [1]; [5]): 2

O=C(O)CN(CCOCCOCCN(CC(=O)O)CC(=O)O)CC(=O)O [EGTA]
CCW: counter-clockwise alignment (C2C12 cells [1]; [6]): 24 | CW: clockwise alignment (C2C12 cells [1]; [6]): 0 | N/S: not significantly biased to CW or CCW (C2C12 cells [1]; [6]): 2 | CCW: counter-clockwise alignment (C2C12 cells [1]; [7]): 12 | CW: clockwise alignment (C2C12 cells [1]; [7]): 1 | N/S: not significantly biased to CW or CCW (C2C12 cells [1]; [7]): 3

Fibronectin
CCW: counter-clockwise alignment (C2C12 cells [1]; [5]): 32 | CW: clockwise alignment (C2C12 cells [1]; [5]): 1 | N/S: not significantly biased to CW or CCW (C2C12 cells [1]; [5]): 4

C/C1=C/C(=O)O[C@@H]2C[C@@H](CC[C@H](C)/C=C\C=C\CC1)O[C@@](O)([C@@H]1CSC(=O)N1)C2 [Latrunculin A]
CCW: counter-clockwise alignment (C2C12 cells [2]; drug 50 nM): 2 | CW: clockwise alignment (C2C12 cells [2]; drug 50 nM): 61 | N/S: not significantly biased to CW or CCW (C2C12 cells [2]; drug 50 nM): 15 | CCW: counter-clockwise alignment (C2C12 cells [2]; drug 200 nM): 0 | CW: clockwise alignment (C2C12 cells [2]; drug 200 nM): 57 | N/S: not significantly biased to CW or CCW (C2C12 cells [2]; drug 200 nM): 7 | CCW: counter-clockwise alignment (C2C12 cells [2]; drug 500 nM): 0 | CW: clockwise alignment (C2C12 cells [2]; drug 500 nM): 1 | N/S: not significantly biased to CW or CCW (C2C12 cells [2]; drug 500 nM): 10 | effect on chirality of C2C12 cells (C2C12 cells [2]; low concentrations of the actin treadmilling inhibitors): reversed the chirality of C2C12 cells from CCW into CW | CCW: counter-clockwise alignment (hUVEC cells; drug 20 nM): 0 | CW: clockwise alignment (hUVEC cells; drug 20 nM): 36 | N/S: not significantly biased to CW or CCW (hUVEC cells; drug 20 nM): 8 | CCW: counter-clockwise alignment (hUVEC cells; drug 50 nM): 0 | CW: clockwise alignment (hUVEC cells; drug 50 nM): 2 | N/S: not significantly biased to CW or CCW (hUVEC cells; drug 50 nM): 19 | CCW: counter-clockwise alignment (hUVEC cells; drug 200 nM): 5 | CW: clockwise alignment (hUVEC cells; drug 200 nM): 2 | N/S: not significantly biased to CW or CCW (hUVEC cells; drug 200 nM): 56 | CCW: counter-clockwise alignment (hUVEC cells; drug 500 nM): 1 | CW: clockwise alignment (hUVEC cells; drug 500 nM): 2 | N/S: not significantly biased to CW or CCW (hUVEC cells; drug 500 nM): 42 | CCW: counter-clockwise alignment (skin tumor cancer cells; 20 nM): 0 | CW: clockwise alignment (skin tumor cancer cells; 20 nM): 21 | N/S: not significantly biased to CW or CCW (skin tumor cancer cells; 20 nM): 4 | CCW: counter-clockwise alignment (skin tumor cancer cells; 50 nM): 1 | CW: clockwise alignment (skin tumor cancer cells; 50 nM): 28 | N/S: not significantly biased to CW or CCW (skin tumor cancer cells; 50 nM): 2 | CCW: counter-clockwise alignment (skin tumor cancer cells; 100 nM): 0 | CW: clockwise alignment (skin tumor cancer cells; 100 nM): 32 | N/S: not significantly biased to CW or CCW (skin tumor cancer cells; 100 nM): 0 | CCW: counter-clockwise alignment (skin tumor cancer cells; 200 nM): 2 | CW: clockwise alignment (skin tumor cancer cells; 200 nM): 8 | N/S: not significantly biased to CW or CCW (skin tumor cancer cells; 200 nM): 3 | effect on cell polarization (organelle positioning relative to boundaries) (C2C12 cells [3]): did not alter cell polarization; also recorded: does not change the polarity of C2C12 cells | direction of cell migration at the boundaries (C2C12 cells [4]; versus untreated): reversal at the boundaries | cell migration velocity at the ring boundaries (C2C12 cells [4]; CW along the outer ring and CCW along the inner ring): 15 μm/hr
